Measured values: patent US12692261B2, “Substituted heterocyclic compounds and therapeutic uses thereof” (Bayer Aktiengesellschaft, priority 2020, dated 2026)
“And” between values parts separate entries of the source, which are not always exact repeats. Equal entries are not always repeated.

Legend:
[1] = target: T1, full-length human CSNK1A1 (Homo sapiens, UniProt P48729); experiment: CSNK1A1 High ATP Assay (ADP-Glo, 1 mM ATP); format: biochemical; conditions: Table 3, read-out: CSNK1A1 high ATP assay IC50 [mol/l] (median);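 note: 30 min kinase reaction at 22 °C with 100 µM peptide substrate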
T1 construct: N-terminal Glutathion-S-Transferase (GST) and full-length human CSNK1A1; purchased Life Technologies PV4174; host or cells: baculovirus infected insect cells
T1 sequence (P48729 whole entry): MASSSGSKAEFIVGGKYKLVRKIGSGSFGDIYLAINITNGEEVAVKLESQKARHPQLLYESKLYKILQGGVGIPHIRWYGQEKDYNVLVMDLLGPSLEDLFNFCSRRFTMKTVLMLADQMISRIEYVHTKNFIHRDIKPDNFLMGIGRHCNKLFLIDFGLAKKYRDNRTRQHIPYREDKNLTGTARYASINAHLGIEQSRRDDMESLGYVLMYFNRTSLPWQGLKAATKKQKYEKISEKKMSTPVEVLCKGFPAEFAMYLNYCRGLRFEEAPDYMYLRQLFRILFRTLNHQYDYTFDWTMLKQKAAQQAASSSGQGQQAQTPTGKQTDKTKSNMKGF
Summary of the method: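 Kinase activity taken as ADP generated, quantified by ADP-Glo luminescence after 1 h ATP depletion and 1 h detection at 22 °C. Enzyme is GST–full-length human CSNK1A1 (insect cell-expressed), pre-bound to compound for 15 min, with phosphopeptide substrate and 1 mM ATP.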

[2] = target: T2, full-length human CSNK1D (Homo sapiens, UniProt P48730); experiment: CSNK1D Assay (ADP-Glo, 1 μM ATP); format: biochemical; conditions: Table 3, read-out: CSNK1D IC50 [mol/l] (median)
T2 construct: N-terminal Glutathion-S-Transferase (GST) and full-length human CSNK1D; purchased Life Technologies PV3665; host or cells: baculovirus infected insect cells
T2 sequence (P48730 whole entry): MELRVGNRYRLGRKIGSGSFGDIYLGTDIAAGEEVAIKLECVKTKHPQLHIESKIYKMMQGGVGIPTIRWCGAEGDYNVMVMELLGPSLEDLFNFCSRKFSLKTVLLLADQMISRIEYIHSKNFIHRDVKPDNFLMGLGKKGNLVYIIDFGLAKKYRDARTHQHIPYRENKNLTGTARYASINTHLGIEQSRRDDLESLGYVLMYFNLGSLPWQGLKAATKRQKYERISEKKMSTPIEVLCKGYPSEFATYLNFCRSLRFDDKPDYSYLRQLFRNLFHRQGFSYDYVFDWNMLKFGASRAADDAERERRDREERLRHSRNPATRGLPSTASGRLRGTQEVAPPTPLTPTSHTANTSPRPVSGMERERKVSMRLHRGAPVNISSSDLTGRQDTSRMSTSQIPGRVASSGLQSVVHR
Summary of the method: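 ADP-Glo luminescence reports ADP generated by GST-fused full-length human CSNK1D (insect-cell expressed, about 0.5 ng/μL) acting on a biotinylated peptide at 1 μM ATP. Test compounds were pre-bound to enzyme 15 min at 22° C in 50 mM HEPES pH 7.5.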

Structure (SMILES)	IC50 [1]	IC50 [2] [µM]
O=C(Nc1cc(-c2[nH]c3cc(F)cnc3c2-c2ccccc2)ccn1)C(CC(F)F)c1ccc(F)cc1 (single isomer, unassigned; (+)) [Example 21, (+)-4,4-difluoro-2-(4-fluorophenyl)-N-[4-(6-fluoro-3-phenyl-1H-pyrrolo[3,2-b]pyridin-2-yl)pyridin-2-yl]butanamide]	0.229 µM	0.00359
COc1ncnc2c(-c3ccccn3)c(-c3ccnc(NC(=O)C(CC(F)F)c4ccc(F)cc4)c3)[nH]c12 (stereo not shown) [Example 113, 4,4-difluoro-2-(4-fluorophenyl)-N-{4-[4-methoxy-7-(pyridin-2-yl)-5H-pyrrolo[3,2-d]pyrimidin-6-yl]pyridin-2-yl}butanamide]	0.157 µM	0.0092
O=C(Nc1cc(-c2[nH]c3cccnc3c2-c2cccc(F)n2)ccn1)C(CC(F)F)c1ccc(F)cc1 (racemic) [Example 25, 4,4-difluoro-2-(4-fluorophenyl)-N-{4-[3-(6-fluoropyridin-2-yl)-1H-pyrrolo[3,2-b]pyridin-2-yl]pyridin-2-yl}butanamide]	0.0186 µM	0.00787
O=C(Nc1cc(-c2[nH]c3c(OCC4CC4)ncnc3c2-c2ccccn2)ccn1)C(CC(F)F)c1ccc(F)cc1 (single isomer, unassigned) [Example 129, (2R or S)—N-{4-[4-(cyclopropylmethoxy)-7-(pyridin-2-yl)-5H-pyrrolo[3,2-d]pyrimidin-6-yl]pyridin-2-yl}-4,4-difluoro-2-(4-fluorophenyl)butanamide]	0.0103 µM	0.00594
O=C(Nc1cc(-c2[nH]c3c(OCC(F)(F)F)ncnc3c2-c2ccccn2)ccn1)C(CC(F)F)c1ccc(F)cc1 (single isomer, unassigned) [Example 124, (2R or S)-4,4-difluoro-2-(4-fluorophenyl)-N-{4-[7-(pyridin-2-yl)-4-(2,2,2-trifluoroethoxy)-5H-pyrrolo[3,2-d]pyrimidin-6-yl]pyridin-2-yl}butanamide]	2.18 µM	0.0466
O=C(Nc1cc(-c2[nH]c3c(CC4CC4)cc(F)nc3c2-c2ccccn2)ccn1)C(CC(F)F)c1ccc(F)cc1 (single isomer, unassigned) [Example 47, (2R or S)—N-{4-[7-(cyclopropylmethyl)-5-fluoro-3-(pyridin-2-yl)-1H-pyrrolo[3,2-b]pyridin-2-yl]pyridin-2-yl}-4,4-difluoro-2-(4-fluorophenyl)butanamide]	0.0316 µM	0.059
O=C(Nc1cc(-c2[nH]c3c(C4CCCO4)cc(F)nc3c2-c2ccccn2)ccn1)C(CC(F)F)c1ccc(F)cc1 (single isomer, unassigned) [Example 116, (2R or S)-4,4-difluoro-N-(4-{5-fluoro-7-[(2R or S)-oxolan-2-yl]-3-(pyridin-2-yl)-1H-pyrrolo[3,2-b]pyridin-2-yl}pyridin-2-yl)-2-(4-fluorophenyl)butanamide]	0.0132 µM	0.00425
O=C(Nc1cc(-c2[nH]c3cccnc3c2-c2ccccn2)ccn1)C(CC(F)F)c1ccc(F)cc1 (single isomer, unassigned; (-)) [Example 12, (−)-4,4-difluoro-2-(4-fluorophenyl)-N-{4-[3-(pyridin-2-yl)-1H-pyrrolo[3,2-b]pyridin-2-yl]pyridin-2-yl}butanamide]	0.856 µM	0.0124
O=C(Nc1cc(-c2[nH]c3c(N4CCNCC4)ccnc3c2-c2ccccn2)ccn1)C(CC(F)F)c1ccc(F)cc1 (single isomer, unassigned) [Example 93, (2R or S)-4,4-difluoro-2-(4-fluorophenyl)-N-{4-[7-(piperazin-1-yl)-3-(pyridin-2-yl)-1H-pyrrolo[3,2-b]pyridin-2-yl]pyridin-2-yl}butanamide]	0.00535 µM	0.0173
O=C(Nc1cc(-c2[nH]c3c(OCC4CC4)ncnc3c2-c2ccccn2)ccn1)C(CC(F)F)c1ccc(F)cc1 (single isomer, unassigned) [Example 130, (2R or S)—N-{4-[4-(cyclopropylmethoxy)-7-(pyridin-2-yl)-5H-pyrrolo[3,2-d]pyrimidin-6-yl]pyridin-2-yl}-4,4-difluoro-2-(4-fluorophenyl)butanamide]	4.96 µM and > 5.71 µM	0.0558
O=C(Nc1cc(-c2[nH]c3cc(F)cnc3c2-c2ccccn2)ccn1)C(CC(F)F)c1ccc(F)cc1 (single isomer, unassigned; (-)) [Example 18, (−)-4,4-difluoro-2-(4-fluorophenyl)-N-{4-[6-fluoro-3-(pyridin-2-yl)-1H-pyrrolo[3,2-b]pyridin-2-yl]pyridin-2-yl}butanamide]	0.542 µM	0.0254
COc1cc(F)nc2c(-c3ccccn3)c(-c3ccnc(NC(=O)C(CC(F)F)c4ccc(F)cc4)c3)[nH]c12 (single isomer, unassigned; (-)) [Example 41, (−)-4,4-difluoro-N-{4-[5-fluoro-7-methoxy-3-(pyridin-2-yl)-1H-pyrrolo[3,2-b]pyridin-2-yl]pyridin-2-yl}-2-(4-fluorophenyl)butanamide]	0.00337 µM	0.00413
Cc1ccc2[nH]c(-c3ccnc(NC(=O)C(CC(F)F)c4ccc(F)cc4)c3)c(-c3ccccn3)c2n1 (single isomer, unassigned) [Example 5, 4,4-difluoro-2-(4-fluorophenyl)-N-{4-[5-methyl-3-(pyridin-2-yl)-1H-pyrrolo[3,2-b]pyridin-2-yl]pyridin-2-yl}butanamide]	0.119 µM	0.00713
O=C(Nc1cc(-c2[nH]c3ccc(F)nc3c2-c2ccc(F)cn2)ccn1)C(CC(F)F)c1ccc(F)cc1 (single isomer, unassigned; (-)) [Example 110, (−)-4,4-difluoro-N-{4-[5-fluoro-3-(5-fluoropyridin-2-yl)-1H-pyrrolo[3,2-b]pyridin-2-yl]pyridin-2-yl}-2-(4-fluorophenyl)butanamide]	0.0476 µM	0.043
O=C(Nc1cc(-c2[nH]c3c(CC4CC4)cc(F)nc3c2-c2ccccn2)ccn1)C(CC(F)F)c1ccc(F)cc1 (racemic) [Example 46, (2RS)—N-{4-[7-(cyclopropylmethyl)-5-fluoro-3-(pyridin-2-yl)-1H-pyrrolo[3,2-b]pyridin-2-yl]pyridin-2-yl}-4,4-difluoro-2-(4-fluorophenyl)butanamide]	0.0232 µM	0.0192
O=C(Nc1cc(-c2[nH]c3c(OCC(F)(F)F)ncnc3c2-c2ccccn2)ccn1)C(CC(F)F)c1ccc(F)cc1 (racemic) [Example 122, (2RS)-4,4-difluoro-2-(4-fluorophenyl)-N-{4-[7-(pyridin-2-yl)-4-(2,2,2-trifluoroethoxy)-5H-pyrrolo[3,2-d]pyrimidin-6-yl]pyridin-2-yl}butanamide]	0.0299 µM	0.00704
O=C(Nc1cc(-c2[nH]c3c(C4CCCO4)cc(F)nc3c2-c2ccccn2)ccn1)C(CC(F)F)c1ccc(F)cc1 (single isomer, unassigned) [Example 115, (2R or S)-4,4-difluoro-N-(4-{5-fluoro-7-[(2R or S)-oxolan-2-yl]-3-(pyridin-2-yl)-1H-pyrrolo[3,2-b]pyridin-2-yl}pyridin-2-yl)-2-(4-fluorophenyl)butanamide]	0.0231 µM	0.00702
CC(C)(O)c1cc(F)nc2c(-c3ccccn3)c(-c3ccnc(NC(=O)C(CC(F)F)c4ccc(F)cc4)c3)[nH]c12 (racemic) [Example 98, (2RS)-4,4-difluoro-N-{4-[5-fluoro-7-(2-hydroxypropan-2-yl)-3-(pyridin-2-yl)-1H-pyrrolo[3,2-b]pyridin-2-yl]pyridin-2-yl}-2-(4-fluorophenyl)butanamide]	0.00736 µM	0.00684
O=C(Nc1cc(-c2[nH]c3c(OCC(F)(F)F)ncnc3c2-c2ccccn2)ccn1)C(CC(F)F)c1ccc(F)cc1 (single isomer, unassigned) [Example 123, (2R or S)-4,4-difluoro-2-(4-fluorophenyl)-N-{4-[7-(pyridin-2-yl)-4-(2,2,2-trifluoroethoxy)-5H-pyrrolo[3,2-d]pyrimidin-6-yl]pyridin-2-yl}butanamide]	0.014 µM	0.00449
O=C(Nc1cc(-c2[nH]c3cccnc3c2-c2ccccc2)ccn1)C(CC(F)F)c1ccc(F)cc1 (single isomer, unassigned; (+)) [Example 24, (+)-4,4-difluoro-2-(4-fluorophenyl)-N-[4-(3-phenyl-1H-pyrrolo[3,2-b]pyridin-2-yl)pyridin-2-yl]butanamide]	0.0666 µM	0.00248
O=C(Nc1cc(-c2[nH]c3nccnc3c2-c2ccccn2)ccn1)[C@@H](CC(F)F)c1ccc(F)cc1 (single isomer, unassigned) [Example 32]	0.00137 µM	0.00455
Cc1ccc2[nH]c(-c3ccnc(NC(=O)C(CC(F)F)c4ccc(F)cc4)c3)c(-c3ccccn3)c2n1 (single isomer, unassigned) [Example 6, 4,4-difluoro-2-(4-fluorophenyl)-N-{4-[5-methyl-3-(pyridin-2-yl)-1H-pyrrolo[3,2-b]pyridin-2-yl]pyridin-2-yl}butanamide]	2.99 µM	0.0897
O=C(Nc1cc(-c2[nH]c3cccnc3c2-c2cccc(F)n2)ccn1)C(CC(F)F)c1ccc(F)cc1 (single isomer, unassigned; (-)) [Example 26, (−)-4,4-difluoro-2-(4-fluorophenyl)-N-{4-[3-(6-fluoropyridin-2-yl)-1H-pyrrolo[3,2-b]pyridin-2-yl]pyridin-2-yl}butanamide]	0.0158 µM	0.0507
